From patent US6287840A (Axys Pharmaceuticals, Inc., priority 1999, dated 2001)
Like-named read-outs stand apart in the source and are kept apart here.

How the values were obtained:
chymotrypsin = assay: Selectivity versus serine proteases: chymotrypsin; type: biochemical; conditions: 100 μM
[1] = biological target: T1, Cathepsin B from human placenta (Homo sapiens, UniProt P07858); assay: Inhibition of cathepsin B, Z-Arg-Arg-AMC fluorescence progress curves; type: biochemical; conditions: for Ki: corrected for substrate; for k/KI (kirr/KI): values without asterisk
T1 construct: Cathepsin B from human placenta, obtained from Sigma; purchased Sigma; host or cells: human placenta (tissue)
How it was run: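 Human placental enzyme (~10 nM) in 50 mM phosphate pH 6.2 with 2.5 mM DTT and 2.5 mM EDTA, 50 μM Z-Arg-Arg-AMC, inhibitors 30-0.001 μM, 25° C. AMC fluorescence (ex 380/em 460 nm) progress curves fitted for kobs; kobs/[I] reported, with kirr, KI and kirr/KI substrate-corrected for selected compounds.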

[2] = biological target: T2, Cathepsin L from rat liver (Rattus norvegicus, UniProt P07154); assay: Inhibition of cathepsin L, Z-Phe-Arg-AMC fluorescence progress curves; type: biochemical; conditions: for Ki: corrected for substrate; for k/KI (kirr/KI): values without asterisk; for k/KI (kirr/KI) / kobs /[I]* (approximate second-order inactivation constant): 25° C., pH 6.2; for kobs /[I]* (approximate second-order inactivation constant): values marked *
T2 construct: Cathepsin L from rat liver; from tissue; host or cells: rat liver
How it was run: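 Progress curves of AMC release (380/460 nm) over at least 3 inactivation half-times were fitted to kobs, reported as kobs/[I] or, via 1/[I] vs 1/kobs, kirr, KI (substrate-corrected) and kirr/KI.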

[3] = Stability of selected inhibitors toward glutathione (Ellmans reagent); type: physicochemical; conditions: for reaction with GSH: after 24 hours, pH=6.2, 15% DMF, 20° C.
Protocol: The inhibitors (5 mM) were incubated with glutathione (GSH) (0.3 mM) in phosphate buffer (50 mM) at pH=6.2 containing 15% DMF at 20° C. Periodically, 50 μL samples were added to 1 mL of buffer and treated with 10 μL of 30 mM Ellmans reagent and the absorbance measured at 412 nm.

[4] = system: mouse malarial parasite Plasmodium vinckei; assay: In vitro protease activity of malarial parasite, substrate Z-Phe-Arg-AMC; type: biochemical; conditions: read-out: P. vinckei IC50 (murine)
From the text: (§1) The following table summarizes the comparative IC50 values for selected cysteine protease inhibitors against the human malarial parasite Plasmodium falciparum and the mouse malarial parasite Plasmodium vinckei. The substrate used to measure in vitro protease activity was Z-Phe-Arg-AMC.

[5] = system: human malarial parasite Plasmodium falciparum; assay: as above; type: biochemical; conditions: read-out: P. falciparum IC50 (human)
From the text: as §1

[6] = system: Trypanosoma cruzi amastigote infected macrophages; assay: In vitro antiprotozoal activity, Trypanosoma cruzi; type: cell-based
Protocol: (§2) In this table, the in vitro antiprotozoal activities of the indicated compounds were measured as percentage inhibition of Leishmania donovani amastigote infecteda mouse peritoneal macrophages, Trypanosoma cruzi amastigote infected macrophages, and Trypanosoma brucei extracellular bloodstream forms.

[7] = system: Leishmania donovani amastigote infected mouse peritoneal macrophages; assay: In vitro antiprotozoal activity, Leishmania donovani; type: cell-based; set-up: key to percentage inhibition, L. donovani: the term "T" indicates the molecule to have displayed cytotoxicity
Protocol: as §2

Cloned cathepsin S = biological target: T3, Cloned cathepsin S (Homo sapiens, UniProt P25774); assay: Inhibition of cathepsin S, Z-Val-Val-Arg-AMC fluorescence progress curves; type: biochemical; conditions: for Ki: corrected for substrate; for k/KI (kirr/KI): values without asterisk; for k/KI (kirr/KI) / kobs /[I]* (approximate second-order inactivation constant): 25° C., pH 6.5; for kobs /[I]* (approximate second-order inactivation constant): values marked *
T3 construct: made in house
How it was run: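 Progress curves at 25 °C in 100 mM phosphate pH 6.5, 2.5 mM DTT, 2.5 mM EDTA, 0.01% Triton, enzyme <1 nM, 10 μM substrate, inhibitors 30-0.001 μM; AMC fluorescence ex 380/em 460 nm. kobs from nonlinear fits gave kobs/[I]; selected compounds yielded kirr, KI (substrate-corrected), kirr/KI.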

calpain = assay: Inhibition (inactivation) of calpain, Suc-Leu-Tyr-AMC; type: biochemical; conditions: values marked * (or %); pH 7.5, 5 mM CaCl2, 25° C.
Protocol: The inhibitors were tested against calpain at 1 or 2% as for the other enzymes. The reaction conditions were 50 mM Tris, pH 7.5, 5 mM CaCl2, 2.5 mM DTT, assayed at 25° C. The substrate was 100 μM Suc-Leu-Tyr-AMC.

cruzain, from T. cruzi = cruzain, from T. cruzi (Trypanosoma cruzi, UniProt P25779); assay: Inhibition of cruzain, as for cathepsin L; type: biochemical; conditions: for k/KI (kirr/KI): values without asterisk; for kobs /[I]* (approximate second-order inactivation constant): values marked *
How it was run: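 Run as for cathepsin L with 1 nM cruzain in 50 mM phosphate pH […], 2.5 mM DTT, 2.5 mM EDTA, 5 μM Z-Phe-Arg-AMC, at 25 °C, inhibitors 30-0.001 μM; fluorescence (ex 380/em 460 nm) followed continuously. kobs fitted from progress curves and kobs/[I] reported; selected compounds gave kirr, KI, kirr/KI, with KI corrected by (1+[S]/Km).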

T. cruzi = T. cruzi infected irradiated J774 cells; type: cell-based; set-up: dose or concentration left out as unconfirmed; conditions: thereafter without inhibitor; compounds listed in decreasing order of effectiveness
Protocol: Irradiated J774 cells were infected with T. cruzi and simultaneously treated with […] of peptidyl vinyl derivatives for 5 days; thereafter without inhibitor. The following compounds were effective in decreasing order: Mu-Phe-ArgVSPh, Boc-Tyr(I2)-HphVSPh, Mu-Phe-VaIVSPh, Boc-Tic-HphVSPh, Mu-Phe-Ser(OBzl)VSPh, Mu-Leu-HphVSPh, Mu-Tyr(I2)-HphVSPh, Mu-Phe-LysVSPh, Mu-Tic-HphVSPh.

[8] = system: Trypanosoma brucei extracellular bloodstream forms; assay: In vitro antiprotozoal activity, Trypanosoma brucei; type: cell-based
Protocol: as §2

U87MG = assay: Matrigel barrier migration assay, U87MG; type: cell-based, human; set-up: dose or concentration left out as unconfirmed
Protocol: (§3) Two permanent human glioma cell lines (U87MG and U251MGn) and a well characterized low passage primary culture derived from a CB-positive glioblastoma (HF66) were used to assess the migratory behavior in the Matrigel barrier migration assay in the presence of graded concentrations of four compounds.
(§4) Using the Matrigel assay, Mu-Leu-HphVSPh, Mu-Tyr-HphVSPh, Mu-Phe-HphVSPh, and Mu-Tyr(I2)-HphVSPh (all at 10 mM) inhibited U251MGn by 67, 56, 29, & 20% respectively, while the U87MG cells were inhibited 53, 75, 63, & 56% respectively. The primary culture HF66 cells were inhibited only 10% by these compounds at the same concentration.

U251MGn = assay: Matrigel barrier migration assay, U251MGn; type: cell-based, human; set-up: dose or concentration left out as unconfirmed
Protocol: as §3, §4

cruzain, from T. cruzi, sequence (P25779 123-337 limits assumed): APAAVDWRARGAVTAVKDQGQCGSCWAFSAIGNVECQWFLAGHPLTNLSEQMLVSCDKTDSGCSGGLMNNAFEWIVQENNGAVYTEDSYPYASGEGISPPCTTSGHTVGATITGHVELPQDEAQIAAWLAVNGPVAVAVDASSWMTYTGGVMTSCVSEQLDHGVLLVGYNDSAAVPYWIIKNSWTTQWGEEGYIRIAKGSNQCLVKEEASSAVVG
T3 sequence (P25774 115-331): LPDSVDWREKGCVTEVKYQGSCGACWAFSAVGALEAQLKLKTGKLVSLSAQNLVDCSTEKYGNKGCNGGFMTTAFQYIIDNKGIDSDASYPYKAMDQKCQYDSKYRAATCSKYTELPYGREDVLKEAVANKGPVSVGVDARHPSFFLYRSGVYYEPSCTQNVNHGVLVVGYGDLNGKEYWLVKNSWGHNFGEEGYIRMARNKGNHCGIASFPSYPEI
T2 sequence (P07154 114-288 limits assumed): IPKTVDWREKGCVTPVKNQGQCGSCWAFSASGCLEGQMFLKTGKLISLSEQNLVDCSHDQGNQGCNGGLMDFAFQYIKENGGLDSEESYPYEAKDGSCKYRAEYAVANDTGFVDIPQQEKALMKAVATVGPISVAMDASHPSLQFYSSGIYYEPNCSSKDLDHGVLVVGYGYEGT
T2 sequence (P07154 291-334 limits assumed): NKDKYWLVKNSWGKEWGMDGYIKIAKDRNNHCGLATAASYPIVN

Compound | kirr [1] [s⁻¹] | Ki [1] [µM] | k/KI (kirr/KI) ([1]; 25° C., pH 6.2) | kirr [2] [s⁻¹] | Ki [2] [µM] | k/KI (kirr/KI) [2] | IC50 ([4]; cells printed in nM) [nM] | kirr (Cloned cathepsin S) [s⁻¹] | Ki (Cloned cathepsin S) [µM] | k/KI (kirr/KI) (Cloned cathepsin S) | effectiveness against T. cruzi in J774 cells (T. cruzi) | kobs /[I]* (approximate second-order inactivation constant) (cruzain, from T. cruzi) | kobs /[I]* (approximate second-order inactivation constant) [2] | also measured
C[C@H](NC(=O)OC(C)(C)C)C(=O)N[C@H](/C=C/S(=O)(=O)c1ccccc1)Cc1ccccc1 [Boc-Ala-PheVSPh] |  |  |  |  |  |  |  |  |  |  |  |  |  | binding to chymotrypsin (chymotrypsin; 100 mM TRIS buffer at pH=7.5): did not bind; inactivation of chymotrypsin (chymotrypsin; pH=7.5, after 1 hour): nor did it inactivate
Br.CCOC(=O)/C=C/[C@H](CCCNC(=N)N)NC(=O)[C@H](Cc1ccccc1)NC(=O)N1CCOCC1 [Mu-Phe-ArgVEOEt.HBr, ethyl (S)-(E)-7-guanidino-4-(4-morpholinecarbonylphenylalanyl)amino-2-heptenoatehydrobromide] | 0.16 | 19 | 8200 M⁻¹ s⁻¹ | 0.18 | 3.1 | 56,900 M^-1 sec^-1 | 200 |  |  |  |  |  |  | second order rate constant for the loss of GSH ([3]; inhibitor 5 mM, GSH 0.3 mM, pH=6.2, 20° C.): 0.0053 M⁻¹ s⁻¹; times more reactive with GSH ([3]; relative to Mu-Phe-LysVSPh): 10 times; IC50 ([5]; cells printed in nM): 300 nM
Br.N=C(N)NCCC[C@@H](/C=C/S(=O)(=O)c1ccccc1)NC(=O)[C@H](Cc1ccccc1)NC(=O)N1CCOCC1 [Mu-Phe-ArgVSPh.HBr, (S)-(E)-3-(4-morpholinecarbonylphenylalanyl)amino-6-guanidino-1-phenylsulfonyl-1-hexene hydrobromide] | 0.15 | 12 | 12,300 M^-1 sec^-1 | 0.67 | 1.9 | 349,000 M^-1 sec^-1 | 50 | 0.031 | 0.016 | 2,000,000 M^-1 sec^-1 | effective |  |  | percentage inhibition, T. cruzi ([6]; 3 uM): 0%; percentage inhibition, T. cruzi ([6]; 10 uM): 0%; percentage inhibition, T. cruzi ([6]; 30 uM): 0%; percentage inhibition, T. cruzi ([6]; 90 uM): 5.8%; percentage inhibition, L. donovani ([7]; 3 uM): 0%; percentage inhibition, L. donovani ([7]; 10 uM): 0%; percentage inhibition, L. donovani ([7]; 30 uM): 0%; percentage inhibition, L. donovani ([7]; 90 uM): 1.3%; kobs /[I]* (calpain): < 50 M⁻¹ s⁻¹; k/KI (kirr/KI) (cruzain, from T. cruzi): 91,400 M^-1 sec^-1; IC50 ([5]; cells printed in nM): 50 nM; percentage inhibition, T. brucei ([8]; 3 uM): 0%; percentage inhibition, T. brucei ([8]; 10 uM): 0%; percentage inhibition, T. brucei ([8]; 30 uM): 0%; percentage inhibition, T. brucei ([8]; 90 uM): 0%
CCOP(=O)(C/C=C/[C@H](CCc1ccccc1)NC(=O)[C@H](Cc1ccccc1)NC(=O)N1CCOCC1)OCC [Mu-Phe-HphVPEt, diethyl (S)-(E)-4-(4-morpholinecarbonylphenylalanyl)amino-6-phenyl-2-hexenephosphonate] |  |  |  | 0.16 | 39 | 4100 M⁻¹ s⁻¹ |  | 0.40 | 36 | 11,200 M^-1 sec^-1 |  |  |  | reaction with GSH ([3]; inhibitor 5 mM, GSH 0.3 mM): no measurable reaction
CS(=O)(=O)/C=C/[C@H](CCc1ccccc1)NC(=O)[C@H](Cc1ccccc1)NC(=O)N1CCOCC1 [Mu-Phe-HphVSMe, (S)-(E)-5-(4-morpholinecarbonylphenylalanyl)amino-7-phenyl-2-thia-3-heptene 2,2-dioxide] | 0.13 | 26 | 5100 M⁻¹ s⁻¹ |  |  |  |  | 0.10 | 0.088 |  |  | 22,000 M^-1 sec^-1 | 8700 M⁻¹ s⁻¹ | reaction with GSH ([3]; inhibitor 5 mM, GSH 0.3 mM): no measurable reaction; IC50 ([4]; cells printed in μM): 1000 nM; IC50 ([5]; cells printed in μM): 1000 nM
O=C(N[C@H](/C=C/S(=O)(=O)c1ccccc1)CCc1ccccc1)C(Cc1cc(I)c(O)c(I)c1)NC(=O)N1CCOCC1 (stereo partly drawn) [Mu-Tyr(I2)-HphVSPh, (S)-(E)-3-[4-morpholinecarbonyl-(3,5-diiodotyrosyl)]-amino-5-phenyl-1-phenylsulfonyl-1-pentene] | 0.18 | 4.7 | 39,200 M^-1 sec^-1 |  |  |  |  |  |  |  | effective | 114,000 M^-1 sec^-1 | 190,000 M^-1 sec^-1 | kobs /[I]* (approximate second-order inactivation constant) (Cloned cathepsin S): > 7,300,000 M^-1 sec^-1; inhibition of U87MG migration (U87MG): 56%; inhibition of U251MGn migration (U251MGn): 20%
(S)-(E)-3-(4-morpholinecarbonylphenylalanyl)amino-4-benzyloxy-1-phenylsulfonyl-1-butene [Mu-Phe-Ser(OBzl)VSPh] | 0.14 | 47 | 2900 M⁻¹ s⁻¹ | 0.20 | 4.6 | 42,700 M^-1 sec^-1 | 500 | 0.092 | 0.074 | 1,240,000 M^-1 sec^-1 | effective |  |  | percentage inhibition, T. cruzi ([6]; 3 uM): 5.2%; percentage inhibition, T. cruzi ([6]; 10 uM): 15.7%; percentage inhibition, T. cruzi ([6]; 30 uM): 15.1%; percentage inhibition, T. cruzi ([6]; 90 uM): 50.7%; percentage inhibition, L. donovani ([7]; 3 uM): 100%; percentage inhibition, L. donovani ([7]; 10 uM): 100%; percentage inhibition, L. donovani ([7]; 30 uM): 100%; percentage inhibition, L. donovani ([7]; 90 uM): T; kobs /[I]* (calpain): < 50 M⁻¹ s⁻¹; k/KI (kirr/KI) (cruzain, from T. cruzi): 12,800 M^-1 sec^-1; IC50 ([5]; cells printed in μM): 1000 nM; percentage inhibition, T. brucei ([8]; 1 uM): 5.2%; percentage inhibition, T. brucei ([8]; 3 uM): 11.5%; percentage inhibition, T. brucei ([8]; 10 uM): 93.3%; percentage inhibition, T. brucei ([8]; 30 uM): 1.00%; percentage inhibition, T. brucei ([8]; 90 uM): 100%
(S)-(E)-3-(4-morpholinecarbonyltyrosyl)amino-5-phenyl-1-phenylsulfonyl-1-pentene [Mu-Tyr-HphVSPh] |  |  |  |  |  |  |  |  |  |  |  | 297,000 M^-1 sec^-1 | 700,000 M^-1 sec^-1 | kobs /[I]* (approximate second-order inactivation constant) (Cloned cathepsin S): 4,200,000 M^-1 sec^-1; kobs /[I]* (approximate second-order inactivation constant) ([1]; values marked *, 25° C., pH 6.2): 20,000 M^-1 sec^-1; inhibition of U87MG migration (U87MG): 75%; inhibition of U251MGn migration (U251MGn): 56%
